Reference: US20200348280A1, “METHODS FOR PREDICTING CANCER DRUG RESPONSIVENESS” (Eutropics Pharmaceuticals, Inc., priority 2018, published 2020)

Columns and labels:
SEV-Bcl-xL-Bim cells = assay: Flow cytometry HSBXB/Bcl-xL signal ratio in SEV-Bcl-xL-Bim cells; format: cell-based, human; conditions: 2 hours semi-permeabilized or 16 hours intact cells, flow cytometry (FIG. 14)
Protocol: In FIG. 14A, human seminal endothelial vesicle cells overexpressing ectopic Bcl-xL and Bim (SEV-Bcl-xL-Bim[ref]) were treated with A-1155463 at the indicated concentrations for 2 hours in semi-permeabilized cells, fixed, and then […] HSBXB or Bcl-xL antibody corrected to IgG-2A isotype. The ratio of the signals (y-axis) were collected flow cytometry. In FIG. 14B, intact SEV-Bcl-xL/Bim cells were treated with A-1155463 for 16 hours, fixed and stained as in FIG. 14A. The ratio of HSBXB and Bcl-xL signal was calculated as a percentage as shown below: […]

[1] = biological target: T1, Bcl-xL/Bim heterodimer in Bcl-xL expressing ATH66 cells (Homo sapiens, UniProt Q07817); assay: Flow cytometry HSBXB/Bcl-xL signal after BH3 mimetic treatment; format: cell-based
T1 construct: endogenous in cells; host or cells: ATH66 cells
From the text: FIG. 8 consists of two graphs that show how the Bcl-xL selective BH3 mimetic (A1155463) shifts the HSBXB heterodimer signal detected in cancer cells. For each series, the left bar is HSBXB signal and the right bar is total Bcl-xL. […] The term “I/C” on the x-axis of the graph refers to “isotype control.” and the term “CC” on the x-axis of the graph refers to the non-stained or “clean control.” The signal was detected using Flow Cytometry.
In these experiments, Bcl-xL expressing ATH66 cells were treated with the compound for 16 hours, then fixed with paraformaldehyde, permeabilized with non-ionic detergent and stained with HSBXB-FITC and with anti-Bcl-xL-Rhodamine. The signals were resolved using flow cytometry. The ratio of the signals provided the Bcl-xL priming index.

HCC1937 cells = assay: Immunofluorescence localization of Bcl-xL and HSBXB; format: cell-based, human; conditions: IF (FIG. 19)
Protocol: A quantitative analysis was performed using the software Zen 2011 (Blue edition, Carl Zeiss). For each panel, the bar at the far left is Mito-BCL-XL, the next bar is Mito-HSBXB, the next bar is Bcl-XL-HSBXB, the next bar is Bcl-XL-DAPI, and the bar on the far right is HSBXB-DAPI. […] Immunofluorescence (IF) stainings of the HSBXB antibody and the Bcl-XL inhibitor, A-1331852, are shown in FIG. 17 in untreated human breast cancer cells, HCC1937 and BT-474. IF stainings and relative signal intensity were obtained from human breast cancer cells, HCC1937, treated with or without the A-1331852 inhibitor, or treated with or without the HSBXB antibody, as shown in FIG. 18.

BT-474 = assay: Drug response (cell viability) in breast cancer cells; format: cell-based; conditions: BT-474 human breast cancer cells
From the text: (§1) FIG. 16A, and FIG. 16B are graphs showing drug response to A1331852 in breast cancer (BC) cells.
(§2) Drug response to the Bcl-xL inhibitor, A-1331852, or the MEK inhibitor, Selumetinib, was compared in two types of human breast cancer cells, HCC1937 and BT-474, as shown in FIG. 16A and FIG. 16B. […] Immunofluorescence (IF) stainings of the HSBXB antibody and the Bcl-XL inhibitor, A-1331852, are shown in FIG. 17 in untreated human breast cancer cells, HCC1937 and BT-474. IF stainings and relative signal intensity were obtained from human breast cancer cells, HCC1937, treated with or without the A-1331852 inhibitor, or treated with or without the HSBXB antibody, as shown in FIG. 18.

HCC1937 = assay: as above; format: cell-based; conditions: HCC1937 human breast cancer cells
From the text: as §1, §2

[2] = biological target: T2, Bcl-xL-GST/Full length BIM protein (Homo sapiens, UniProt Q07817); assay: ELISA, inhibition of HSBXB signal on Bcl-xL-GST/full length BIM heterodimer; format: binding; conditions: heterodimers formed with full length Bim protein
T2 construct: cloned and mutated to delete their transmembrane domains; made in house; host or cells: E. coli BL21
Protocol: The compound was added to the ELISA plates after addition of peptides and before adding the monoclonal antibody.
(§3) To further characterize HSBXB, the antibody was assessed under conditions where Bcl-xL/Bim binding, mediated by the BH3 domain of Bim, was inhibited. […] In the experiment shown in FIG. 13A, Bcl-xL-GST was bound to glutathione-coated ELISA plates. Bim-BH3 peptide was then added, or not added as a control, and HSBXB antibody was used to detect complex formation. […] Non-covalent Bcl-xL-GST/Bim BH3 heterodimer was bound to glutathione-coated ELISA plates and treated with ABT-263. ABT-263 was then added to the ELISA plates after addition of peptides and before adding the monoclonal antibody.

[3] = biological target: T3, Bcl-xL-GST/Bim BH3 heterodimer (Homo sapiens, UniProt Q07817); assay: ELISA, inhibition of HSBXB signal on non-covalent Bcl-xL-GST/Bim BH3 heterodimer; format: binding; conditions: heterodimers formed with peptide comprising the BH3 domain of Bim; compound added after peptides, before antibody
T3 construct: cloned and mutated to delete their transmembrane domains; made in house; host or cells: E. coli BL21
T3 sequence (Q07817 1-209 limits assumed, one chain of several): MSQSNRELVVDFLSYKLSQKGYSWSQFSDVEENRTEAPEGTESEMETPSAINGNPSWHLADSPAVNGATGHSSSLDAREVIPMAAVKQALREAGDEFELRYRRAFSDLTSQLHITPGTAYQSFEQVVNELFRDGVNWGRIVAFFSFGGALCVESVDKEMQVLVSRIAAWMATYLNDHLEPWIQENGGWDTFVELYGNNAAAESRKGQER
Protocol: as §3

T1 sequence (Q07817 whole entry, species assumed, one chain of several): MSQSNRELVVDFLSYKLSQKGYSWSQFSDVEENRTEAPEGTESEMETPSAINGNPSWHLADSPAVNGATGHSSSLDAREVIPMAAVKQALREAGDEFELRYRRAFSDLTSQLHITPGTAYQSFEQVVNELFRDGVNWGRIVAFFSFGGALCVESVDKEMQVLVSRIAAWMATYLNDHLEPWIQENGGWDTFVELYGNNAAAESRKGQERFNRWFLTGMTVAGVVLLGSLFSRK
T2 sequence (Q07817 1-209 limits assumed): as the sequence (Q07817 1-209 limits assumed, one chain of several) above

**Q.** With `CN(C)CC#Cc1ccc(OCCCc2sc(N3CCc4cccc(C(=O)Nc5nc6ccccc6s5)c4C3)nc2C(=O)O)c(F)c1` [A-1155463] as the compound, how does the “HSBXB signal (ratio of HSBXB and Bcl-xL signal)” value (SEV-Bcl-xL-Bim cells) read?
**A.** HSBXB signal shifts

**Q.** And the “Bcl-xL priming index (ratio of HSBXB-FITC and anti-Bcl-xL-Rhodamine signals)” value ([1]; ATH66 cells treated for 16 hours, flow cytometry)?
**A.** diminish over a time course that coincided with the occurrence of apoptosis

**Q.** What about the HSBXB heterodimer signal ([1]; sub-lethal dose, 16 hours, flow cytometry (FIG. 8)) of the same compound?
**A.** lose signal after 16 hours

**Q.** With `Cc1c(-c2ccc(N3CCc4cccc(C(=O)Nc5nc6ccccc6s5)c4C3)nc2C(=O)O)cnn1CC12CC3CC(CC(C3)C1)C2` [A-1331852] as the compound, how does the “localization of Bcl-xL and HSBXB” value (HCC1937 cells) read?
**A.** Changes in the localization of Bcl-xL and HSBXB

**Q.** What about the cell viability (BT-474) of the same compound?
**A.** decrease in cell viability

**Q.** And the cell viability (HCC1937)?
**A.** decrease in cell viability

**Q.** `CC1(C)CCC(c2ccc(Cl)cc2)=C(CN2CCN(c3ccc(C(=O)NS(=O)(=O)c4ccc(N[C@H](CCN5CCOCC5)CSc5ccccc5)c(S(=O)(=O)C(F)(F)F)c4)cc3)CC2)C1` [ABT-263] was tested. Which “inhibition of heterodimer antibody (HSBXB) signal” value [2] did it give?
**A.** dose-dependent inhibition of heterodimer antibody signal

**Q.** And the “inhibition of heterodimer antibody (HSBXB) signal” value [3]?
**A.** dose-dependent inhibition of heterodimer antibody signal
